Values joined by “and” are separate entries in the source; they are usually repeats but may differ in a detail not shown here. Identical values can stand only once.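 Step 1: Grow cells in 96-well plates. Step 2: Expose to compound for 48 hours at 5 concentrations. Step 3: Interpolate endpoints linearly; if unreached, use highest concentration. The concentration for 50% growth inhibition is given as GI50. TGI is the concentration that stops growth completely.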
Key:
Assay in all cases: NCI tumour cell line growth inhibition, 48 h
[1] = tested on: OVCAR-5 ovarian
[2] = tested on: CCRF-CEM leukemia
[3] = tested on: MCF7 breast
[4] = tested on: NCI/ADR-RES ovarian
[5] = tested on: A498 renal
[6] = tested on: HOP-92 NSCLC
[7] = tested on: M19-MEL melanoma
[8] = tested on: RPMI-8226 leukemia
[9] = tested on: MDA-N
[10] = tested on: PC-3 prostate
[11] = tested on: HS 578T breast
[12] = tested on: A549 NSCLC
[13] = tested on: U251 CNS
[14] = tested on: ACHN renal
[15] = tested on: HOP-18 NSCLC
[16] = tested on: K-562 leukemia
[17] = tested on: XF 498 CNS
[18] = tested on: OVCAR-3 ovarian
[19] = tested on: 786-0 renal
[20] = tested on: NCI-H23 lung
[21] = tested on: T-47D breast
[22] = tested on: SN12K1 renal
[23] = tested on: HCT-116 colon
[24] = tested on: MALME-3M melanoma
[25] = tested on: COLO 205 colon
[26] = tested on: SK-MEL-28 melanoma
[27] = tested on: NCI-H522 lung
[28] = tested on: UACC-62 melanoma
[29] = tested on: SW-620 colon
[30] = tested on: HL-60(TB) leukemia
[31] = tested on: MOLT-4 leukemia
[32] = tested on: DLD-1 colon
[33] = tested on: HOP-62 NSCLC
[34] = tested on: DMS 114 small cell lung
[35] = tested on: UACC-257 melanoma
[36] = tested on: M14 melanoma
[37] = tested on: IGROV1 ovarian
[38] = tested on: SNB-78 CNS
[39] = tested on: SF-539 CNS
[40] = tested on: P388/ADR leukemia
[41] = tested on: SF-295 CNS
[42] = tested on: SN12C renal
[43] = tested on: TK-10 renal
[44] = tested on: SNB-75 CNS
[45] = tested on: UO-31 renal
[46] = tested on: NCI-H460 lung
[47] = tested on: MDA-MB-435
[48] = tested on: OVCAR-4 ovarian
[49] = tested on: OVCAR-8 ovarian
[50] = tested on: SNB-19 CNS
[51] = tested on: KM12 colon
[52] = tested on: HT29 colon
[53] = tested on: SK-MEL-5 melanoma
[54] = tested on: CAKI-1 renal
[55] = tested on: NCI-H226 lung
[56] = tested on: SK-MEL-2 melanoma
[57] = tested on: RXF 393 renal
[58] = tested on: KM20L2 colon
[59] = tested on: EKVX NSCLC
[60] = tested on: MDA-MB-231 breast
[61] = tested on: HCT-15 colon
[62] = tested on: HCC-2998 colon
[63] = tested on: SF-268 CNS

Question: What does the source list for C=C1C(O)C2(O)OCC34C(CC5C(C)=CC(=O)C(O)C5(C)C23)OC(=O)C(OC(=O)C/C=C(\C)CCCCC)C14 (stereo not drawn)?
Answer: GI50 [1]: 2.2 nM; GI50 [2]: < 1 nM; GI50 [3]: < 1 nM; GI50 [4]: 387 nM and 1460 nM; TGI [4]: 4220 nM and 6420 nM and 11500 nM; GI50 [5]: 2.49 nM and 22.3 nM; TGI [5]: 9.41 nM and 57 nM and 25.5 nM; GI50 [6]: 1.57 nM; TGI [6]: 6.64 nM and 19.5 nM and 23.4 nM; TGI [7]: 17.3 nM; GI50 [8]: < 1 nM; TGI [9]: 2.29 nM and 17.9 nM; TGI [10]: 3.2 nM and 14.1 nM; TGI [11]: < 1 nM; GI50 [12]: 1.37 nM; TGI [12]: 23.3 nM and 69.8 nM and 53.5 nM; GI50 [13]: < 1 nM; TGI [14]: 8.56 nM and 51.8 nM; TGI [15]: 1100 nM; GI50 [16]: < 1 nM; TGI [17]: 23.2 nM; GI50 [18]: < 1 nM; TGI [18]: < 1 nM; TGI [19]: 6.81 nM and 24.4 nM; GI50 [20]: < 1 nM; TGI [21]: < 1 nM; TGI [22]: 16 nM; GI50 [23]: < 1 nM; GI50 [24]: < 1 nM; TGI [24]: < 1 nM; GI50 [25]: 1.23 nM; TGI [25]: 8.12 nM and 20.6 nM and 27.2 nM; GI50 [26]: < 1 nM; GI50 [27]: < 1 nM; GI50 [28]: < 1 nM; GI50 [29]: < 1 nM; TGI [29]: 15.8 nM and 119 nM and 26 nM; GI50 [30]: < 1 nM; GI50 [31]: < 1 nM; TGI [32]: 159 nM; GI50 [33]: < 1 nM; TGI [34]: 16.1 nM; GI50 [35]: < 1 nM; TGI [36]: 1.41 nM; GI50 [37]: < 1 nM; TGI [38]: 37.3 nM; GI50 [39]: < 1 nM; TGI [40]: 454 nM; GI50 [41]: 1.3 nM; TGI [41]: 5.67 nM and 24.5 nM and 17.4 nM; GI50 [42]: 1.57 nM; GI50 [43]: 23.9 nM; TGI [43]: 11.9 nM and 86.5 nM; GI50 [44]: < 1 nM; TGI [44]: 3.66 nM and 27.8 nM; GI50 [45]: 48.3 nM and 258 nM; TGI [45]: 269 nM and 1210 nM and 220 nM; GI50 [46]: < 1 nM; TGI [47]: 2.21 nM; GI50 [48]: < 1 nM; GI50 [49]: < 1 nM; TGI [49]: 5.65 nM and 19.2 nM and 18.8 nM; GI50 [50]: < 1 nM; GI50 [51]: < 1 nM; TGI [51]: 20.1 nM and 19 nM and 34.2 nM; GI50 [52]: < 1 nM; GI50 [53]: < 1 nM; TGI [53]: < 1 nM; GI50 [54]: 27.4 nM and 87.5 nM; GI50 [55]: < 1 nM; GI50 [56]: 1.13 nM; TGI [56]: 9.85 nM and 42 nM; GI50 [57]: < 1 nM; TGI [57]: 3.51 nM and 24.5 nM; TGI [58]: 199 nM; GI50 [59]: 47.9 nM; GI50 [60]: 30.2 nM; TGI [60]: 21.8 nM and 162 nM; GI50 [61]: 9.53 nM and 43.4 nM; TGI [61]: 50.3 nM and 352 nM and 151 nM; GI50 [62]: < 1 nM; TGI [62]: 2.22 nM and 19 nM; GI50 [63]: < 1 nM

From PubChem BioAssay (NCI)
